Experimental data: ChEMBL document CHEMBL4392842, “Structural hybridization of pyrrolidine-based T-type calcium channel inhibitors and exploration of their analgesic effects in a neuropathic pain model” (Bioorg Med Chem Lett, 2019)
Calls of active or inactive are those of the source.

Assays:
[1] = molecular target: T1, Voltage-dependent T-type calcium channel subunit alpha-1G (Homo sapiens, UniProt O43497); assay: Inhibition of recombinant human Cav3.1 expressed in HEK293 cells assessed as reduction in KCl-induced increase in intracellular calcium level at 10 uM by fura-2 AM indicator based FDSS assay relative to control; format: cell-based
[2] = molecular target: T2, Voltage-dependent T-type calcium channel subunit alpha-1H (Homo sapiens, UniProt O95180); assay: Inhibition of Cav3.2 (unknown origin) assessed as reduction in KCl-induced increase in intracellular calcium level at 10 uM by fura-2 AM indicator based FDSS assay relative to control; format: cell-based
[3] = Stability in human liver microsomes assessed as parent compound remaining measured after 30 mins; format: ADME, Microsome; conditions: read-out: Stability
[4] = molecular target: Voltage-gated inwardly rectifying potassium channel KCNH2 (Homo sapiens, UniProt Q12809); assay: Inhibition of human ERG by whole-cell patch clamp method
[5] = molecular target: T1, Voltage-dependent T-type calcium channel subunit alpha-1G; assay: Inhibition of recombinant human Cav3.1 expressed in HEK293 cells assessed as suppression of KCl-evoked current by whole-cell patch clamp method; format: cell-based
[6] = molecular target: T2, Voltage-dependent T-type calcium channel subunit alpha-1H; assay: Inhibition of Cav3.2 (unknown origin) assessed as suppression of KCl-evoked current by whole-cell patch clamp method
[7] = molecular target: CYP2C19 (Homo sapiens, UniProt P33261); assay: Inhibition of CYP2C19 (unknown origin) assessed as residual activity at 10 uM relative to control; format: ADME; conditions: read-out: Activity
[8] = molecular target: T3, CYP1A2 (Homo sapiens, UniProt P05177); assay: Inhibition of CYP1A2 (unknown origin) assessed as residual activity at 10 uM relative to control; format: ADME; conditions: read-out: Activity
T3 sequence (P05177 whole entry): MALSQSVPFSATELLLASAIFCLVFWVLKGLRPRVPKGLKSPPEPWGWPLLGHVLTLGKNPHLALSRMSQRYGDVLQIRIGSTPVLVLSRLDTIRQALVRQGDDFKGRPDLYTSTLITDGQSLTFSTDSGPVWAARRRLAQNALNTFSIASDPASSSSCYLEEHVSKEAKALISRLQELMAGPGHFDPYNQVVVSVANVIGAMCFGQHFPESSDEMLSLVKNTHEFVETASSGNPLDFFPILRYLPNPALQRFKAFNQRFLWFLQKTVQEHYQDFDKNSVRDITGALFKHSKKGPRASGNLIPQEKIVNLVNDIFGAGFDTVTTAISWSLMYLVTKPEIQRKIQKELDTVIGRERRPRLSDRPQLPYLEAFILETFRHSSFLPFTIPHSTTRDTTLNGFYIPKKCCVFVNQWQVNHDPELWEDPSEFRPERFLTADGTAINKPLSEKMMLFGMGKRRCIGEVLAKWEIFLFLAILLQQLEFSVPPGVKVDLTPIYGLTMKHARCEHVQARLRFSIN

[9] = molecular target: CYP2D6 (Homo sapiens, UniProt P10635); assay: Inhibition of CYP2D6 (unknown origin) assessed as residual activity at 10 uM relative to control; format: ADME; conditions: read-out: Activity
[10] = molecular target: CYP2C9 (Homo sapiens, UniProt P11712); assay: Inhibition of CYP2C9 (unknown origin) assessed as residual activity at 10 uM relative to control; format: ADME; conditions: read-out: Activity
[11] = molecular target: CYP3A4 (Homo sapiens, UniProt P08684); assay: Inhibition of CYP3A4 (unknown origin) assessed as residual activity at 10 uM relative to control; format: ADME; conditions: read-out: Activity
[12] = test system: Rattus norvegicus; assay: Analgesic activity in Sprague-Dawley rat L5/L6 spinal nerve ligation-induced neuropathic pain model assessed as reversal of mechanical allodynia by measuring increase in paw withdrawal threshold to non-noxious mechanical stimuli at 100 mg/kg, po measured after 3 hrs relative to control; format: functional
[13] = test system: Rattus norvegicus; assay: Analgesic activity in Sprague-Dawley rat L5/L6 spinal nerve ligation-induced neuropathic pain model assessed as decrease in paw withdrawal threshold to non-noxious cold stimuli at 100 mg/kg, po measured after 1 hr; format: functional, organism-based
[14] = test system: Rattus norvegicus; assay: Analgesic activity in Sprague-Dawley rat L5/L6 spinal nerve ligation-induced neuropathic pain model assessed as decrease in paw withdrawal threshold to non-noxious cold stimuli at 100 mg/kg, po measured after 5 hrs; format: functional, organism-based

Voltage-gated inwardly rectifying potassium channel KCNH2, sequence (Q12809 whole entry): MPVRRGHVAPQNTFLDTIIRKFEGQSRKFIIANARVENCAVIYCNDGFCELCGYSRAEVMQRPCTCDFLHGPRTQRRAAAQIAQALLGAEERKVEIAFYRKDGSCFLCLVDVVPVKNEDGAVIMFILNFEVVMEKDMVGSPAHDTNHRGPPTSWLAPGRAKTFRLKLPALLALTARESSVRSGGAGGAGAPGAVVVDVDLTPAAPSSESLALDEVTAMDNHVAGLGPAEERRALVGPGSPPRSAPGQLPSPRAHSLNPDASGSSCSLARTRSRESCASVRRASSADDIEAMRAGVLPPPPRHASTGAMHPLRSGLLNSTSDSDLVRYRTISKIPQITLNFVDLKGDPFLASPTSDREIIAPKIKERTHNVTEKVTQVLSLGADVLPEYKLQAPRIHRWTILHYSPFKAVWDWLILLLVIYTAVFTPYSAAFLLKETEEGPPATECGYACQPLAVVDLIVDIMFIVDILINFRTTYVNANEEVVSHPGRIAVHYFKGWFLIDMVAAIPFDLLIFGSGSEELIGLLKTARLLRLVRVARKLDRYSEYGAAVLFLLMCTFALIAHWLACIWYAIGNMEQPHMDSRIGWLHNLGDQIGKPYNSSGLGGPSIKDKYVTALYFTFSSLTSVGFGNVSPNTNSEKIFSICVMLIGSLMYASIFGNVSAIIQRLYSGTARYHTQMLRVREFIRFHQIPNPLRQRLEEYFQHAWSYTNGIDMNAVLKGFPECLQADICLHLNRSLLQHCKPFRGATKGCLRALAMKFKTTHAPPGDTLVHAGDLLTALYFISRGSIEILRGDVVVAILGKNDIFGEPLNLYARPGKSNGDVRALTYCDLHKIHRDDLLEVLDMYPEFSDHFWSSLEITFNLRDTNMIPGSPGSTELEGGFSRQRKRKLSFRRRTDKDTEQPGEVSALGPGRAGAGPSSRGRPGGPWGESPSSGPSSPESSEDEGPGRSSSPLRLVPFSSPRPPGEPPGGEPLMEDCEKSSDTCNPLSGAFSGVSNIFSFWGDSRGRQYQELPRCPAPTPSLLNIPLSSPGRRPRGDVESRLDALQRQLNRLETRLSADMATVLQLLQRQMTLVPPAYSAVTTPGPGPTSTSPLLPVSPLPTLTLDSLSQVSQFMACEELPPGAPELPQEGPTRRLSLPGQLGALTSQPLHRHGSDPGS
T2 sequence (O95180 whole entry): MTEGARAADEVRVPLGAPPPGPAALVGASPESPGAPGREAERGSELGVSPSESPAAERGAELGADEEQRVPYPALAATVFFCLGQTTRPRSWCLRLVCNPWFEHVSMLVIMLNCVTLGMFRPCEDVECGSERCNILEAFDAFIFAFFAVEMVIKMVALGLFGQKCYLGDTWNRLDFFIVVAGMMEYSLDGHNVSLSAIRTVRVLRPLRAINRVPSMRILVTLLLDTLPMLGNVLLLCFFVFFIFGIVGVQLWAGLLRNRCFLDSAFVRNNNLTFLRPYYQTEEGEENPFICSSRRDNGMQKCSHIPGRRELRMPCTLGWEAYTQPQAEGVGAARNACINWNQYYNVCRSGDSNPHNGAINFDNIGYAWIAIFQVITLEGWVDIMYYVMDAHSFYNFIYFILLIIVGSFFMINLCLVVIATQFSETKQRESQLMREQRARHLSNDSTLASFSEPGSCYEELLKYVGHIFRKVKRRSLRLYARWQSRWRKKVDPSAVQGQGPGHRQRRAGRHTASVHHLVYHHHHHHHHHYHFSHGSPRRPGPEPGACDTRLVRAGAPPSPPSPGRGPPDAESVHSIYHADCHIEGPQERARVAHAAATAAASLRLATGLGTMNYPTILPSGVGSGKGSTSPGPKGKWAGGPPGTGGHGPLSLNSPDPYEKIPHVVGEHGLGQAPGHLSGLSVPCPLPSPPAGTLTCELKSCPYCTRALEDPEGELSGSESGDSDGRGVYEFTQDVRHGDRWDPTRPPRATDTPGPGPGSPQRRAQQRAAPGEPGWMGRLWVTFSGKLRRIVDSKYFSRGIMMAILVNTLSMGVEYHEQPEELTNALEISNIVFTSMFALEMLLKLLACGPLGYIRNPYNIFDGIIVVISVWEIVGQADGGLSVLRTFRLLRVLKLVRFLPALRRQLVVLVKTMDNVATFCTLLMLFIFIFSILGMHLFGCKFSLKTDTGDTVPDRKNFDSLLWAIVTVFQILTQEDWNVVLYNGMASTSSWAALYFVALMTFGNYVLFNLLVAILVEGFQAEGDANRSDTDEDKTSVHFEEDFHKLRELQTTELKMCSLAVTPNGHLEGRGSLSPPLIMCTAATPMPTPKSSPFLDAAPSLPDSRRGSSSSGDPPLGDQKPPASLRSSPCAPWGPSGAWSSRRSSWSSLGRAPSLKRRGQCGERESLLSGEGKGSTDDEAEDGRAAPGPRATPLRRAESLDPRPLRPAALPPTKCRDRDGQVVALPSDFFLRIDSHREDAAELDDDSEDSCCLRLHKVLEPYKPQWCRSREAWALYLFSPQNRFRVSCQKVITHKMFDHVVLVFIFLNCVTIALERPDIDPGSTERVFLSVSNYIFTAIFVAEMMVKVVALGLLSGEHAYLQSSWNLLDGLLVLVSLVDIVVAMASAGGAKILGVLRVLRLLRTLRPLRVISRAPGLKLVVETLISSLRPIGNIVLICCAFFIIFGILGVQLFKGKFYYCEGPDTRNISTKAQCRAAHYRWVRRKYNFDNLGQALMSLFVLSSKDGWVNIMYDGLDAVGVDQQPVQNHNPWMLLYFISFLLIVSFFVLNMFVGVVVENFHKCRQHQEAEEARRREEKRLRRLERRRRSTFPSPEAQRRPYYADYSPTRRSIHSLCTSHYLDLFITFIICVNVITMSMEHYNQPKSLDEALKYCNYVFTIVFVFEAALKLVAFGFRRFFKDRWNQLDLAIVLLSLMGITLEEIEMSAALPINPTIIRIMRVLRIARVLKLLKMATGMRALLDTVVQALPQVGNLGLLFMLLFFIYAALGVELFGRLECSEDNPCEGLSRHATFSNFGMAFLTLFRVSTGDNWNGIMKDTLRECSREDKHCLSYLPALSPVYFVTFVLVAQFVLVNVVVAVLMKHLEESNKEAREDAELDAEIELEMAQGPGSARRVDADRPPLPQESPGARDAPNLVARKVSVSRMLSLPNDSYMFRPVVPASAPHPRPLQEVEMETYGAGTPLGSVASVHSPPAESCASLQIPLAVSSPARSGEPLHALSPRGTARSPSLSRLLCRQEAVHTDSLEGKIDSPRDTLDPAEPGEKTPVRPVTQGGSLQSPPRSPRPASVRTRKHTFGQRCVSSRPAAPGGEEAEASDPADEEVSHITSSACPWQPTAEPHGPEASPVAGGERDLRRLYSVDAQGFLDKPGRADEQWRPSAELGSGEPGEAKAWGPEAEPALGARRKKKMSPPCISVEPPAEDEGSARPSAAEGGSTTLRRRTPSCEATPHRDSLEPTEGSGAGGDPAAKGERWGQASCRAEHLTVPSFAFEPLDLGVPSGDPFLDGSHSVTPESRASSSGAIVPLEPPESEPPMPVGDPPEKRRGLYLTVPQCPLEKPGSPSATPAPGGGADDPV
CYP3A4, sequence (P08684 whole entry): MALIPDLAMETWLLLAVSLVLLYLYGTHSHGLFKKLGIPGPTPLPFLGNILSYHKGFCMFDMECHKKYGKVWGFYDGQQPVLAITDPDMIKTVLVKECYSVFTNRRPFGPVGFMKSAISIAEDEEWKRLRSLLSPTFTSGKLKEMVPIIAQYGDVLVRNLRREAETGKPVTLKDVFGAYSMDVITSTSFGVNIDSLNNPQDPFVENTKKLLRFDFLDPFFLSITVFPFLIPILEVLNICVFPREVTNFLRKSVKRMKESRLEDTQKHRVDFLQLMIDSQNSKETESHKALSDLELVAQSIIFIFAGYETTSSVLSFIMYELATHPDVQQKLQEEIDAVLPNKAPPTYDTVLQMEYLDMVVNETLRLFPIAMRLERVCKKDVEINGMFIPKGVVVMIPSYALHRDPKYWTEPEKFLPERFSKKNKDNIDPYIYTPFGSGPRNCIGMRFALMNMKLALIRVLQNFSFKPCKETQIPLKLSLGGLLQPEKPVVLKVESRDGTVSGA
CYP2C19, sequence (P33261 whole entry): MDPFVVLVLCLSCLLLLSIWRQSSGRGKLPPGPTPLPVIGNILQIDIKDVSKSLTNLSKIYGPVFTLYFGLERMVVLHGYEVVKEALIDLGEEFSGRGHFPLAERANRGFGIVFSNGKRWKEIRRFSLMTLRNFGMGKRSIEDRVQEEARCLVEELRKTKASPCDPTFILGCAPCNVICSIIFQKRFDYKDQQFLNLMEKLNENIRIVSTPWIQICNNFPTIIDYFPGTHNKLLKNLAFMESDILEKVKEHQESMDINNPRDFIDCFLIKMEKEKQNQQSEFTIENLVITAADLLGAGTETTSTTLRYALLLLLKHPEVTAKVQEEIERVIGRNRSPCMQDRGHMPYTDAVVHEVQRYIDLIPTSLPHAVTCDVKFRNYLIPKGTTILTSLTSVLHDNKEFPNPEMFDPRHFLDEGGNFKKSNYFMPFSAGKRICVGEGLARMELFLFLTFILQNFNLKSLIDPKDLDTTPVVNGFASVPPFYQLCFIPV
CYP2C9, sequence (P11712 whole entry): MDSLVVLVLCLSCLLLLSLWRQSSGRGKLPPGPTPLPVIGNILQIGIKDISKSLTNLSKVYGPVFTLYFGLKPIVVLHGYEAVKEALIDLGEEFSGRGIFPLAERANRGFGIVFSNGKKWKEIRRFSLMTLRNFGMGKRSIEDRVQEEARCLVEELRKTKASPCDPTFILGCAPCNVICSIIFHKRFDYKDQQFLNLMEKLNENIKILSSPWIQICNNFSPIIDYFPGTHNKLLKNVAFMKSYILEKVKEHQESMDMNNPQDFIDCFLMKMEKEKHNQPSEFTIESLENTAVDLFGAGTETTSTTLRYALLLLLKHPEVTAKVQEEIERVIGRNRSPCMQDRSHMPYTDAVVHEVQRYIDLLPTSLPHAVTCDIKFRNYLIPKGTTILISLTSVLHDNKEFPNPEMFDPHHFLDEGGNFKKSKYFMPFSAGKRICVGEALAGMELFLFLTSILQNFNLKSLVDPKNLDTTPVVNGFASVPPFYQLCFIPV

Structure (SMILES) | inhibition [1] [%] | inhibition [2] [%] | remaining at 0.5 h [3] [%] | IC50 [4] [µM] | other results
CC(C)c1cc(C(=O)NC[C@H]2CCN(CCc3ccc(C(F)(F)F)cc3)C2)on1 | 48.7 | 63.2 | 34.2 |  | 
Cc1ccc(CCN2CC[C@H](CNC(=O)c3cc(C(C)C)no3)C2)cc1C(F)(F)F | 46.8 | 51.9 | 39.8 | 1.9 | IC50 [5]: 5.13 µM; IC50 [6]: 7.61 µM; activity at 10 µM [7]: 50.4%; activity at 10 µM [8]: 88.1%; activity at 10 µM [9]: 31.2%; activity at 10 µM [10]: 53.9%; activity at 10 µM [11]: 33%; Activity [12]: 80%; Activity [13]: Active; Activity [14]: Active
CC(C)c1cc(C(=O)NC[C@H]2CCN(CCc3ccc(OC(F)(F)F)c(F)c3)C2)on1 | 36.4 | 59.7 | 35.2 | 0.16 | 
CC(C)c1cc(C(=O)NC[C@H]2CCN(C(=O)CC(C)(C)C)C2)on1 | 23.1 | 17.8 |  |  | 
COC(=O)C1=C(C)NC(C)=C(C(=O)NC[C@H]2CCN(CCc3ccc(Cl)c(Cl)c3)C2)C1c1cccc([N+](=O)[O-])c1 (stereo not given in full) | 32.5 | 31.3 | 2.87 |  | 
NCC1(CC(=O)O)CCCCC1 |  |  |  |  | Activity [12]: Active; Activity [14]: Active
COC(=O)C1=C(C)NC(C)=C(C(=O)NC[C@H]2CCN(CCc3ccc(C(F)(F)F)cc3)C2)C1c1cccc([N+](=O)[O-])c1 (stereo not given in full) | 43.5 | 34.1 | 2.01 | 1.48 | 
COC(=O)C1=C(C)NC(C)=C(C(=O)NC[C@H]2CCN(CCc3ccc(Cl)c(F)c3)C2)C1c1cccc([N+](=O)[O-])c1 (stereo not given in full) | 80.3 | 69.7 | 2.13 | 0.33 | 
COC(=O)C1=C(C)NC(C)=C(C(=O)NC[C@H]2CCNC2)C1c1cccc([N+](=O)[O-])c1 (stereo not given in full) | 5.49 | 21.8 |  |  | 
COC(=O)C1=C(C)NC(C)=C(C(=O)NC[C@H]2CCN(CCc3ccc(C)c(C(F)(F)F)c3)C2)C1c1cccc([N+](=O)[O-])c1 (stereo not given in full) | 78.3 | 65.2 | 0.63 | 2.7 | 
CC(C)c1cc(C(=O)NC[C@H]2CCN(CCc3ccc(Cl)c(Cl)c3)C2)on1 | 71.7 | 69.7 | 51.7 | 1.53 | 
COC(=O)C1=C(C)NC(C)=C(C(=O)NC[C@H]2CCN(CCc3ccc(OC(F)(F)F)c(F)c3)C2)C1c1cccc([N+](=O)[O-])c1 (stereo not given in full) | 26.4 | 33.7 | 0.25 | 1.47 | 
CC(C)c1cc(C(=O)NC[C@H]2CCNC2)on1 | 11.4 | 8.36 |  |  | 
CC(C)c1cc(C(=O)NC[C@H]2CCN(Cc3cccnc3)C2)on1 | 2.4 | 11.6 |  |  | 
CC(C)c1cc(C(=O)NC[C@H]2CCN(CCC(C)(C)C)C2)on1 | 23.3 | 21.1 |  |  | 
CC(C)c1cc(C(=O)NC[C@H]2CCN(CCc3ccc(Cl)c(F)c3)C2)on1 | 59.9 | 50.1 | 26.2 | 1.52 | 
